# Laboratory results published in ChEMBL document CHEMBL5724696, “Autophagy assay results for EUbOPEN Chemogenomics Library” (2024).
# Values joined by “and” are separate entries in the source; they are usually repeats but may differ in a detail not shown here. Identical values can stand only once.
# Columns and labels:
# Assay type in all cases: functional, Homo sapiens
# U2OS [1] = assay: (§1) Here: values are normalized to the negative (DMSO; defined as 0% autophagy induction) and positive (250nM Torin1; mTOR inhibitor; defined as maximal inducer of autophagy = 100%) control compounds and represented as % of autophagy induction. […] The impact of autophagy induction on cells is complex and depends on the affected target. As such, the magnitude of a phenotype may not be equally mirrored in the %-value of autophagy induction and vice versa. The dynamics of the induction may indicate the mode of activation: e.g. activation via phosphorylation or a signaling cascade may occur fast, while activation via transcription factors may take considerably longer. […] Of note, treatment concentrations may be sub-optimal for specific compounds, leading to false negative annotations.; conditions: Culturing Media DMEM, 1 % Penicillin/Streptomycin, 10% Fetal bovin serum Add-On: No, Screening Media Control DMEM, Screening Media Samples DMEM
# TERT-RPE1 = assay: as §1; conditions: Culturing Media DMEM/F12 (1:1), 1 % Penicillin/Streptomycin, 10% Fetal bovin serum Add-On: No, Screening Media Control DMEM/F12 (1:1), Screening Media Samples DMEM/F12 (1:1)
# U2OS [2] = assay: as §1; conditions: Culturing Media DMEM, 1 % Penicillin/Streptomycin, 10% Fetal bovin serum Add-On: No, Screening Media Control DMEM, Screening Media Samples DMEM; remark: listed apart in the source
# [3] = Compound Concentration 0.5 uM, Timepoint 12 hours
# [4] = Compound Concentration 0.5 uM, Timepoint 24 hours
# [5] = Compound Concentration 0.5 uM, Timepoint 36 hours
# [6] = Compound Concentration 0.5 uM, Timepoint 60 hours
# [7] = Compound Concentration 2 uM, Timepoint 12 hours
# [8] = Compound Concentration 2 uM, Timepoint 24 hours
# [9] = Compound Concentration 2 uM, Timepoint 36 hours
# [10] = Compound Concentration 2 uM, Timepoint 60 hours
# [11] = Compound Concentration 10 uM, Timepoint 12 hours
# [12] = Compound Concentration 10 uM, Timepoint 24 hours
# [13] = Compound Concentration 10 uM, Timepoint 36 hours
# [14] = Compound Concentration 10 uM, Timepoint 60 hours
Structure (SMILES),autophagy induction (U2OS [1]; [3]),autophagy induction (U2OS [1]; [4]),autophagy induction (U2OS [1]; [5]),autophagy induction (U2OS [1]; [6]),autophagy induction (U2OS [1]; [7]),autophagy induction (U2OS [1]; [8]),autophagy induction (U2OS [1]; [9]),autophagy induction (U2OS [1]; [10]),autophagy induction (U2OS [1]; [11]),autophagy induction (U2OS [1]; [12]),autophagy induction (U2OS [1]; [13]),autophagy induction (U2OS [1]; [14]),autophagy induction (U2OS [2]; [3]),autophagy induction (U2OS [2]; [4]),autophagy induction (U2OS [2]; [5]),autophagy induction (U2OS [2]; [6]),autophagy induction (U2OS [2]; [7]),autophagy induction (U2OS [2]; [8]),autophagy induction (U2OS [2]; [9]),autophagy induction (U2OS [2]; [10]),other results
O=C(Cc1ccccc1)Nc1nc2ccc(Cl)cc2c2nc(-c3ccco3)nn12,-1.429%,-4.076%,-2.306%,0.1335%,-7.203%,-1.219%,-0.343%,-0.2104%,-51.1859%,-16.9004%,-8.178%,-3.011%,4.486%,1.051%,3.966%,7.125%,-5.124%,-1.574%,-4.263%,4.935%,autophagy induction (TERT-RPE1; [3]): -7.39%; autophagy induction (TERT-RPE1; [4]): -10.3716%; autophagy induction (TERT-RPE1; [5]): -15.7815%; autophagy induction (TERT-RPE1; [6]): -15.2628%; autophagy induction (TERT-RPE1; [7]): -6.9816%; autophagy induction (TERT-RPE1; [8]): -7.632%; autophagy induction (TERT-RPE1; [9]): -7.871%; autophagy induction (TERT-RPE1; [10]): -12.6626%; autophagy induction (TERT-RPE1; [11]): -9.4005%; autophagy induction (TERT-RPE1; [12]): 10.615%; autophagy induction (TERT-RPE1; [13]): 24.2695%; autophagy induction (TERT-RPE1; [14]): 38.8225%; autophagy induction (U2OS [2]; [11]): -2.171%; autophagy induction (U2OS [2]; [12]): -3.2492%; autophagy induction (U2OS [2]; [13]): 0.6441%; autophagy induction (U2OS [2]; [14]): 10.7185%
COc1ccc(NS(=O)(=O)c2sc3ccc(Cl)cc3c2C)cc1N1CCNCC1.Cl,2.987%,-0.6318%,-59.945%,-1.761%,6.036%,-0.4148%,-59.1656%,-2.731%,1.788%,0.7642%,-61.0668%,-6.058%,-11.3104%,-5.358%,-7.917%,-7.314%,6.008%,2.399%,-3.71%,-14.5759%,"autophagy induction (TERT-RPE1; Compound Concentration 0.5 uM, Timepoint 12 hours, 12 h, 0.5 µM): -2.268% and 1.364%; autophagy induction (TERT-RPE1; Compound Concentration 0.5 uM, Timepoint 24 hours, 24 h, 0.5 µM): -0.6721% and -2.131%; autophagy induction (TERT-RPE1; Compound Concentration 0.5 uM, Timepoint 36 hours, 36 h, 0.5 µM): -2.429% and -0.9432%; autophagy induction (TERT-RPE1; Compound Concentration 0.5 uM, Timepoint 60 hours, 60 h, 0.5 µM): -2.224% and -1.994%; autophagy induction (TERT-RPE1; Compound Concentration 2 uM, Timepoint 12 hours, 12 h, 2 µM): 1.355% and 0.7844%; autophagy induction (TERT-RPE1; Compound Concentration 2 uM, Timepoint 24 hours, 24 h, 2 µM): 2.1639% and -0.4459%; autophagy induction (TERT-RPE1; Compound Concentration 2 uM, Timepoint 36 hours, 36 h, 2 µM): 0.7328% and -1.399%; autophagy induction (TERT-RPE1; Compound Concentration 2 uM, Timepoint 60 hours, 60 h, 2 µM): 3.483% and -0.5872%; autophagy induction (TERT-RPE1; Compound Concentration 10 uM, Timepoint 12 hours, 12 h, 10 µM): 10.6024% and -4.741%; autophagy induction (TERT-RPE1; Compound Concentration 10 uM, Timepoint 24 hours, 24 h, 10 µM): 10.2969% and -5.794%; autophagy induction (TERT-RPE1; Compound Concentration 10 uM, Timepoint 36 hours, 36 h, 10 µM): 13.8741% and -5.163%; autophagy induction (TERT-RPE1; Compound Concentration 10 uM, Timepoint 60 hours, 60 h, 10 µM): 16.669% and -5.902%; autophagy induction (U2OS [2]; [11]): 10.7956%; autophagy induction (U2OS [2]; [12]): 3.064%; autophagy induction (U2OS [2]; [13]): -4.691%; autophagy induction (U2OS [2]; [14]): -6.499%"
